# Where two headings read alike, the source gives them in different places.
# Legend:
# LTD4 = experiment: Oral Testing of Leukotriene Antagonists (guinea pig, SRS-A antagonism); type: in vivo, guinea pig (Hartley strain, Charles River); settings: 10 mg/kg P.O., two hours prior to challenge with leukotriene
# Description: (c) Oral Testing of Leukotriene Antagonists
# Male guinea pigs (Hartley strain, Charles River) weighing 400 to 600 g were anesthetized with urethane (2 g/kg) intraperitoneally and a polyethylene cannula was inserted into the jugular vein for intravenous drug administration. Tracheal pressure (cm water) was recorded from a Statham pressure transducer. After surgical preparation of the animals, a period of time was allowed for spontaneous breathing to stabilize. […] Two minutes later, spontaneous breathing was arrested with succinylcholine chloride (1.2 mg/kg, i.v.) and the animals ventilated with a Harvard (Model #680) small animal respirator set at 40 breaths per minute and 4.0 cc stroke volume. The animals were challenged with a maximum constrictory dose of either leukotriene C4 or leukotriene D4 or leukotriene E4 ([…], i.v.) at 5 minutes. Control vehicle or test drug (adjusted to an alkaline pH where necessary for drug solubilization) was administered (10 mg/kg, p.o) two hours prior to challenge with leukotriene. In order to determine the ID50 for a test drug, the dose is varied from 10 mg/kg, p.o. to 100, 50, 30, 20, 5, 3 and 1 mg/kg. p.o.
# In order to determine oral duration of action, the time between exposure to test drug and challenge with leukotriene is varied.
# In test procedure (c), the compounds listed in Table III were tested by this oral procedure, and the results obtained are also set out in Table III.
# [1] = test system: SRS-A induced constriction of the guinea pig ileum; experiment: Guinea Pig Ileum, In Vitro (SRS-A antagonism); type: cell-based; settings: Cavia porcellus
# Description: (a) Guinea Pig Ileum, In Vitro:
# The guinea pig ileum biassay system has been described by Orange Austen, Adv. Immunol. 10: 105-144 (1969). A 1.5 cm segment is removed from animals weighing 300-400 g and suspended in an organ bath containing 10 ml of Tyrodes solution with 10^-6 M atropine sulfate and 10^-6 M pyrilamine maleate. The bath is maintained at 37° C. and aerated with a mixture of 95% oxygen and 5% carbon dioxide. The SRS-A utilized in this screen is obtained by challenging chopped lung fragments from actively sensitized guinea pigs with egg albumin, in vitro. A dose-response curve to SRS-A challenge is established for the ileum. The dose of SRS-A which given 50% of the maximal contraction (EC50) is then used for subsequent challenge. The drug concentration which inhibits, by 50%, the SRS-A induced constriction of the guinea pig ileum is determined.
# leukotriene E4 = experiment: Guinea Pig Bronchoconstriction, In Vivo (Aerosol) (SRS-A antagonism); parameters: species or system guinea pig (Hartley strain); settings: leukotriene E4 i.v. challenge; for In vivo-aerosol IC50: 5 min exposure, % (w/v) conc.
# Description: (b) Guinea Pig Bronchoconstriction, In Vivo (Aerosol):
# Male guinea pigs (Hartley strain) weighing 300 to 500 g are anesthetized with urethane (2 g/kg) intraperitoneally and a polyetylene cannula is inserted into the jugular vein for drug administration. Tracheal pressure is recorded from a cannula inserted in the trachea and connected to a Statham pressure transducer. After surgical preparation of the animals, a period of time is allowed from pulmonary functions to stabilize. The test compound is administered according to the following protocol. Propanolol (0.1 mg/kg) is administered intravenously while the animals breathed spontaneously. Five minutes thereafter, the animals are exposed for a five minute period to a 1% (w/v) aerosol solution of test compound (adjusted to an alkaline pH where necessary for drug solubilization) or to distilled water of the appropriate pH (for control purposes). A Monaghan (Model 750) ultrasonic nebulizer is used to administer all test compounds by inhalation. The nebulizer ultrasonic frequency is adjusted to produce particles in the 1-8μ diameter range (average 3μ). Aqueous solutions are prepared freshly and introduced into the chamber of the nebulizeer. The output of the nebulizer is made available to the animal by directing a bias flow of aerosol through a Y tube connected to the tracheal cannula. At the end of the exposure period, the animals are paralyzed with succinylcholine (1.2 mg/kg, i.v.) and mechanically respirated (Harvard rodent respirator) at 40 breaths/minute and 2.5 cc tidal volume. […]
# The change (cm H2 O) between pre and peak ventilatory pressure readings averaged for three control animals and five drug treated animals. The percent inhibition is calculated from the following formula: [formula] When various drug concentrations are tested, the percent inhibition at each concentration is plotted as log concentration (abscissa) versus percent inhibition (ordinate) and the IC50 is determined from linear regression analysis.
# [2] = SRS-A challenge at EC50, Table I, read-out: In vitro G.P. ileum IC50
Structure (SMILES),"IC50 [1, 2] [µM]",other results
"CCCc1c(OCCCCC2(C)CC(=O)c3ccc(OCCCC(=O)OCC)c(CCC)c3O2)ccc(C(C)=O)c1O (racemic) [rac.-4-[2-[4-(4-acetyl-3-hydroxy-2-propylphenoxy)butyl]-3,4-dihydro-2-methyl-4-oxo-8-propyl-2H-1-benzopyran-7-yl]oxy]butanoic acid ethyl ester]",–,% Inhib. of LTD4 (LTD4): 38 ± 7%
"CCCc1c(OCCCCC2(C)CC(=O)c3ccc(OCC(=O)OC)cc3O2)ccc(C(C)=O)c1O (racemic) [rac.-[[2-[4-(4-acetyl-3-hydroxy-2-propylphenoxy)butyl]-3,4-dihydro-2-methyl-4-oxo-2H-1-benzopyran-7-yl]oxy]acetic acid methyl ester]",–,% Inhib. of LTD4 (LTD4): 47 ± 5%
"CCCc1c(OCCCCC2(C)CC(=O)c3ccc(OCC(=O)OC)c(CCC)c3O2)ccc(C(C)=O)c1O (racemic) [rac.-[[2-[4-(4-acetyl-3-hydroxy-2-propylphenoxy)butyl]-3,4-dihydro-2-methyl-4-oxo-8-propyl-2H-1-benzopyran-7-yl]oxy]acetic acid methyl ester]",–,% Inhib. of LTD4 (LTD4): 25 ± 12%
"CCCc1c(OCCCCC2CC(=O)c3ccc(OCC(=O)O)c(CCC)c3O2)ccc(C(C)=O)c1O (racemic) [rac.-[[2-[4-(4-acetyl-3-hydroxy-2-propylphenoxy)butyl]-3,4-dihydro-4-oxo-8-propyl-2H-1-benzopyran-7-yl]oxy]acetic acid]",0.5,In vivo-aerosol % inhib. at (% conc.) (leukotriene E4; at 0.1 % conc.): 34.1 ± 8%
"CCCc1c(OCCCCCCC2CC(=O)c3ccc(OCC(=O)O)c(CCC)c3O2)ccc(C(C)=O)c1O (racemic) [rac.-[[2-[6-(4-acetyl-3-hydroxy-2-propylphenoxy)hexyl]-3,4-dihydro-4-oxo-8-propyl-2H-1-benzopyran-7-yl]oxy]acetic acid]",0.3,In vivo-aerosol IC50 (leukotriene E4): 0.32%
"CCCc1c(OCC(O)Cc2ccc3c(=O)cc(C(=O)O)oc3c2CCC)ccc(C(C)=O)c1O (centres unmarked) [7-[3-(4-acetyl-3-hydroxy-2-propylphenoxy)-2-hydroxypropyl]-4-oxo-8-propyl-4H-1-benzopyran-2-carboxylic acid, reference compound]",–,"IC50 ([1]; SRS-A challenge at EC50, read-out: IC50 of the standard SRS-A antagonist): 0.035 µM"

# Continued, in another order:
"IC50 [1, 2] [µM]",Structure (SMILES),other results
3,"CCCc1c(OCCCCC2(C)CC(=O)c3ccc(OCCCC(=O)O)cc3O2)ccc(C(C)=O)c1O (racemic) [rac.-4-[[2-[4-(4-acetyl-3-hydroxy-2-propylphenoxy)butyl]-3,4-dihydro-2-methyl-4-oxo-2H-1-benzopyran-7-yl]oxy]butanoic acid]",–
1,"CCCc1c(OCCCCC2(C)CC(=O)c3ccc(OCCCC(=O)O)c(CCC)c3O2)ccc(C(C)=O)c1O (racemic) [rac.-4-[[2-[4-(4-acetyl-3-hydroxy-2-propylphenoxy)butyl]-3,4-dihydro-2-methyl-4-oxo-8-propyl-2H-1-benzopyran-7-yl]oxy]butanoic acid]",–
2,"CCCc1c(OCCCCC2(C)CC(=O)c3ccc(OCC(=O)O)c(CCC)c3O2)ccc(C(C)=O)c1O (racemic) [rac.-[2-[4-(4-acetyl-3-hydroxy-2-propylphenoxy)butyl]-3,4-dihydro-2-methyl-4-oxo-8-propyl-2H-1-benzopyran-7-yl]oxy]acetic acid]",–
5,"CCCc1c(OCCCCC2(C)CC(=O)c3ccc(OCC(=O)O)cc3O2)ccc(C(C)=O)c1O (racemic) [rac.-[[2-[4-(4-acetyl-3-hydroxy-2-propylphenoxy)butyl]-3,4-dihydro-2-methyl-4-oxo-2H-1-benzopyran-7-yl]oxy]acetic acid]",–
0.5,"CCCc1c(OCCCCCCC2(C)CC(=O)c3ccc(OCC(=O)O)c(CCC)c3O2)ccc(C(C)=O)c1O (racemic) [rac.-[[2-[6-(4-acetyl-3-hydroxy-2-propylphenoxy)hexyl]-3,4-dihydro-2-methyl-4-oxo-8-propyl-2H-1-benzopyran-7-yl]oxy]acetic acid]",In vivo-aerosol IC50 (leukotriene E4): 0.26%

# From patent US4650812A, “4-oxo-3,4-dihydro-2H-1-benzopyranyloxy alkanoic acid derivatives” (Hoffmann-La Roche Inc., priority 1985, dated 1987)
